Measurements published in patent US20170022171A1, “2,5-DISUBSTITUTED CYCLOPENTANECARBOXYLIC ACIDS AND THEIR USE” (Bayer Pharma Aktiengesellschaft, priority 2014, published 2017).
pIC50: −log10 of the molar value.

Experiments:
Type in all cases: biochemical
MMP-2 = target: T1, MMP-2 (Homo sapiens, UniProt P08253); test: In vitro MMP-2 inhibition test
T1 construct: purchased R&D Systems 902-MP
T1 sequence (P08253 110-660): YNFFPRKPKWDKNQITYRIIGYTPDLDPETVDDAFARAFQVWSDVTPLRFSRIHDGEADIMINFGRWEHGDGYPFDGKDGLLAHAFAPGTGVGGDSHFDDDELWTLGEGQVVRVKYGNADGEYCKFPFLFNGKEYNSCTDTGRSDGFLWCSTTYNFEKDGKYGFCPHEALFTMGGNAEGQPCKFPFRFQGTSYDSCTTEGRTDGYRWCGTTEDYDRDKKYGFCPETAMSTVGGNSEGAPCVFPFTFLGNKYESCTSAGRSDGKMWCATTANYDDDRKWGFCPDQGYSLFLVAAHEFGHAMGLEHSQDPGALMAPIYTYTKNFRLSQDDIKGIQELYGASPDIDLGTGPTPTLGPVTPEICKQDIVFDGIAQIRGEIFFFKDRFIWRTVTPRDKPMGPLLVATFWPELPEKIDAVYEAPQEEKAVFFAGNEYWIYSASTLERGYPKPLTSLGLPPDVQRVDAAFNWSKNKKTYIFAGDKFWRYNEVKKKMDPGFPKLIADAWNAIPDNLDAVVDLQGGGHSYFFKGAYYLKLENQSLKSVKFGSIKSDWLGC
Source text: (§1) The MMP-mediated amidolytic cleavage of a suitable peptide substrate leads to an increase in fluorescent light here too. The signal intensity of the fluorescent light is directly proportional to the enzyme activity. The active concentration of a test compound at which half the enzyme is inhibited (50% signal intensity of the fluorescent light) is reported as the IC50 value.
(§2) Recombinant MMP-2 (from R&D Systems, 902-MP) is chemically activated in accordance with the manufacturer's instructions using APMA. 1 μl of the test compound to be analysed (as a solution in DMSO, suitable concentrations, for example, 1 nM to 30 μM) is pipetted into 24 μl of activated enzyme (final concentration, for example, 2 nM) in reaction buffer (50 mM Tris/HCl pH 7.5, 10 mM CaCl2, 150 mM NaCl, 0.05% Brij®-35) in a white 384-hole microtiter plate (MTP). The enzymatic reaction is started by adding the intramolecularly quenched Mca-Pro-Leu-Gly-Leu-Dpa(Dnp)-Ala-Arg-NH2 substrate (final concentration, for example, 10 μM; R&D Systems, ES-001), so as to result in a total test volume of 50 μl. The course of the MMP-2 reaction is measured by measuring the fluorescence intensity (excitation 320 nm, emission 410 nm) over a suitable period of time (for example over 120 min at a temperature of 32° C.).

MMP-10 = target: T2, MMP-10 (Homo sapiens, UniProt P09238); test: In vitro MMP-10 inhibition test
T2 construct: purchased R&D Systems 910-MP
T2 sequence (P09238 99-476): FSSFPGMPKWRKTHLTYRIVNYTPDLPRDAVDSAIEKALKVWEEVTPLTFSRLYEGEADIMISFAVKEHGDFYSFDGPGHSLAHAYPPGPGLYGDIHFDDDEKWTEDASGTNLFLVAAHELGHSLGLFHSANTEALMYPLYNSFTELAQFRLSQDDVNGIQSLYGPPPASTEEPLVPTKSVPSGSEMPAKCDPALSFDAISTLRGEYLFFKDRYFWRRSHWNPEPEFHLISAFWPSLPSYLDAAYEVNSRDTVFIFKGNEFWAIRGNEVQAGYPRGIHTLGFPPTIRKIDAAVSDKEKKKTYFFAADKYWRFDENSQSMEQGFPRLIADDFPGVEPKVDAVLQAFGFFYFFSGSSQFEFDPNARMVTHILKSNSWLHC
Source text: as §1
as §2, with “MMP-10” for “MMP-2”, “910-MP)” for “902-MP)”, “Mca-Arg-Pro-Lys-Pro-Val-Glu-Nval-Trp-Arg-Lys(Dnp)-NH2” for “Mca-Pro-Leu-Gly-Leu-Dpa(Dnp)-Ala-Arg-NH2”, “ES-002),” for “ES-001),”

mouse MMP-2 = target: T3, mouse MMP-2 (Mus musculus, UniProt P33434); test: In vitro mouse MMP-2 inhibition test
T3 construct: purchased R&D Systems 924-MP
T3 sequence (P33434 110-662): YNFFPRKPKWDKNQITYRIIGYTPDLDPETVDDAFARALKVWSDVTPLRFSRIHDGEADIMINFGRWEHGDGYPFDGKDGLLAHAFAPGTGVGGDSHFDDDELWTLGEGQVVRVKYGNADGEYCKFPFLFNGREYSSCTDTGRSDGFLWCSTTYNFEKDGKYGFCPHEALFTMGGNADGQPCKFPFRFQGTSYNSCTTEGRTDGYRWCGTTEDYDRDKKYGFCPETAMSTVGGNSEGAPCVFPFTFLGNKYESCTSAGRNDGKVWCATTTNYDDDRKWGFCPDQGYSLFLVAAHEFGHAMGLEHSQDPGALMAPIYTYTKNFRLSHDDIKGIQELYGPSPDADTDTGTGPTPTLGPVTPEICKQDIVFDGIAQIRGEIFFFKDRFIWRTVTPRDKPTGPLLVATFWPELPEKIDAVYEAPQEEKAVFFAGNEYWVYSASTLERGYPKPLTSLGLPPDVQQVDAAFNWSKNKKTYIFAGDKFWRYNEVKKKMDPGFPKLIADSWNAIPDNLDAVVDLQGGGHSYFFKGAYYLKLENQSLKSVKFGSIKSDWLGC
Source text: as §1
as §2, with “Recombinant mouse” for “Recombinant”, “Systems, 924-MP)” for “Systems, 902-MP)”, “example, 0.1” for “example, 2”, “50” for “50 μl.”

mouse MMP-3 = target: T4, mouse MMP-3 (Mus musculus, UniProt P28862); test: In vitro mouse MMP-3 inhibition test
T4 construct: purchased R&D Systems 548-MP
T4 sequence (P28862 100-477): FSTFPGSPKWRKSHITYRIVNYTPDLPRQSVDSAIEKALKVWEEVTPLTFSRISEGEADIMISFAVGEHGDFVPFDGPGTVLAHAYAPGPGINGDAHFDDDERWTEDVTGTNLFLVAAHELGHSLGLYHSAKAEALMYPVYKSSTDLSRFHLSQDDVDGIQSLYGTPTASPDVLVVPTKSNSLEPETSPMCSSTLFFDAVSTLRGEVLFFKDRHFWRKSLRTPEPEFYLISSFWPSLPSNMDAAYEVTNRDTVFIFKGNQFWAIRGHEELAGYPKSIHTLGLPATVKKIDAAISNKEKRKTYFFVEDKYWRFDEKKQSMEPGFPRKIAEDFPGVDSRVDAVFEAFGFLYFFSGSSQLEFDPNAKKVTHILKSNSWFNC
Source text: as §1
Recombinant mouse MMP-3 (from R&D Systems, 548-MP) is chemically activated in accordance with the manufacturer's instructions using APMA. 1 μl of the test compound to be analysed (as a solution in DMSO, suitable concentrations, for example, 1 nM to 30 μM) is pipetted into 24 μl of activated enzyme (final concentration, for example, 0.5 nM) in reaction buffer (50 mM Tris/HCl pH 7.5, 10 mM CaCl2, 150 mM NaCl, 0.05% Brij®-35) in a white 384-hole microtiter plate (MTP). The enzymatic reaction is started by adding the intramolecularly quenched Mca-Arg-Pro-Lys-Pro-Val-Glu-Nval-Trp-Arg-Lys(Dnp)-NH2 substrate (final concentration, for example, 5 μM; R&D Systems, ES-002), so as to result in a total test volume of 50 μl. The course of the MMP-3 reaction is measured by measuring the fluorescence intensity (excitation 320 nm, emission 410 nm) over a suitable period of time (for example over 120 min at a temperature of 32° C.).

SMILES | pIC50 (MMP-2) | pIC50 (MMP-10) | pIC50 (mouse MMP-2) | pIC50 (mouse MMP-3)
O=C(O)[C@H]1[C@H](Cn2nnc3ccccc3c2=O)CC[C@@H]1C(=O)c1ccc(OCc2ccc(F)cc2)cc1 (racemic) [Example 1, (+/−)-(1RS,2RS,5SR)-2-{4-[(4-Fluorobenzyl)oxy]benzoyl}-5-[(4-oxo-1,2,3-benzotriazin-3(4H)-yl)methyl]cyclopentanecarboxylic acid] | 8.03 | 7.48 | 7.85 | 6.80
O=C(O)[C@H]1[C@H](Cn2nnc3ccccc3c2=O)CC[C@@H]1C(=O)c1ccc(OCc2cccc(Cl)c2)cc1 (racemic) [Example 2, (+/−)-(1RS,2RS,5SR)-2-{4-[(3-Chlorobenzyl)oxy]benzoyl}-5-[(4-oxo-1,2,3-benzotriazin-3(4H)-yl)methyl]cyclopentanecarboxylic acid] | 6.54 | 6.51 | 6.40 | 5.89
O=C(O)[C@H]1[C@H](Cn2nnc3ccccc3c2=O)CC[C@@H]1C(=O)c1ccc(OCc2ccc(Cl)c(Cl)c2)cc1 (racemic) [Example 3, (+/−)-(1RS,2RS,5SR)-2-{4-[(3,4-Dichlorobenzyl)oxy]benzoyl}-5-[(4-oxo-1,2,3-benzotriazin-3(4H)-yl)methyl]cyclopentanecarboxylic acid] | 6.72 | 6.37 | 6.54 | 5.72
O=C(O)[C@H]1[C@H](Cn2nnc3ccccc3c2=O)CC[C@@H]1C(=O)c1ccc(OCC2CCCC2)cc1 (racemic) [Example 4, (+/−)-(1RS,2RS,5SR)-2-[4-(Cyclopentylmethoxy)benzoyl]-5-[(4-oxo-1,2,3-benzotriazin-3(4H)-yl)methyl]cyclopentanecarboxylic acid] | 7.08 | 6.96 | 7.00 | 5.89
O=C(O)[C@H]1[C@H](Cn2nnc3ccccc3c2=O)CC[C@@H]1C(=O)c1ccc(OCCC2CCCCC2)cc1 (racemic) [Example 5, (+/−)-(1RS,2RS,5SR)-2-[4-(2-Cyclohexylethoxy)benzoyl]-5-[(4-oxo-1,2,3-benzotriazin-3(4H)-yl)methyl]cyclopentanecarboxylic acid] | 6.66 | 7.03 | 6.57 | 5.89
O=C(O)[C@H]1[C@H](Cn2nnc3ccc(C(F)(F)F)cc3c2=O)CC[C@@H]1C(=O)c1ccc(OCc2ccccc2)cc1 (racemic) [Example 11, (+/−)-(1RS,2RS,5SR)-2-[4-(Benzyloxy)benzoyl]-5-{[4-oxo-6-(trifluoromethyl)-1,2,3-benzotriazin-3(4H)-yl]methyl}cyclopentanecarboxylic acid] | 6.68 | 7.80 | 6.60 | 6.23

The next lines start with the values.

pIC50 (MMP-2) | pIC50 (MMP-10) | pIC50 (mouse MMP-2) | pIC50 (mouse MMP-3) | SMILES
5.34 | 6.77 | 5.42 | 5.02 | O=C(O)[C@H]1[C@H](Cn2nnc3ccc(C(F)(F)F)cc3c2=O)CC[C@@H]1C(=O)c1ccc(OCCCc2ccccc2)cc1 (racemic) [Example 39, (+/−)-(1RS,2SR,5RS)-2-{[4-Oxo-6-(trifluoromethyl)-1,2,3-benzotriazin-3(4H)-yl]methyl}-5-[4-(3-phenylpropoxy)benzoyl]cyclopentanecarboxylic acid]
6.36 | 7.68 | 6.24 | 6.74 | O=C(O)[C@H]1[C@H](Cn2nnc3ccc(C(F)(F)F)cc3c2=O)CC[C@@H]1C(=O)c1ccc(OCC2CCCCC2)cc1 (racemic) [Example 40, (+/−)-(1RS,2RS,5SR)-2-[4-(Cyclohexylmethoxy)benzoyl]-5-{[4-oxo-6-(trifluoromethyl)-1,2,3-benzotriazin-3(4H)-yl]methyl}cyclopentanecarboxylic acid]
5.55 | 6.60 | 5.30 | < 4.40 | O=C(O)[C@H]1[C@H](Cn2nnc3ccc(C(F)(F)F)cc3c2=O)CC[C@@H]1C(=O)c1ccc(OCCCC2CCCCC2)cc1 (racemic) [Example 56, (+/−)-(1RS,2RS,5SR)-2-{4-(3-Cyclohexylpropoxy)benzoyl}-5-{[4-oxo-6-(trifluoromethyl)-1,2,3-benzotriazin-3(4H)-yl]methyl}cyclopentanecarboxylic acid]
5.40 | 6.51 | 5.23 | 5.03 | O=C(O)[C@H]1[C@H](Cn2nnc3ccc(C(F)(F)F)cc3c2=O)CC[C@@H]1C(=O)c1ccc(SCc2ccc(Cl)c(Cl)c2)cc1 (racemic) [Example 79, (+/−)-(1RS,2RS,5SR)-2-{4-[(3,4-Dichlorobenzyl)sulphanyl]benzoyl}-5-{[4-oxo-6-(trifluoromethyl)-1,2,3-benzotriazin-3(4H)-yl]methyl}cyclopentanecarboxylic acid]
7.00 | 7.68 | 7.02 | 6.40 | Cc1ccc2nnn(C[C@@H]3CC[C@H](C(=O)c4ccc(OCc5ccccc5)cc4)[C@H]3C(=O)O)c(=O)c2c1 (racemic) [Example 91, (+/−)-(1RS,2RS,5SR)-2-[4-(Benzyloxy)benzoyl]-5-[(6-methyl-4-oxo-1,2,3-benzotriazin-3(4H)-yl)methyl]cyclopentanecarboxylic acid]
5.64 | 6.80 | 5.72 | 5.34 | Cc1cccc(COc2ccc(C(=O)[C@H]3CC[C@@H](Cn4nnc5ccc(C)cc5c4=O)[C@@H]3C(=O)O)cc2)c1 (racemic) [Example 97, (+/−)-(1RS,2RS,5SR)-2-{4-[(3-Methylbenzyl)oxy]benzoyl}-5-[(6-methyl-4-oxo-1,2,3-benzotriazin-3(4H)-yl)methyl]cyclopentanecarboxylic acid]
